Results reported in US7786079B2, “Substituted nonadepsipeptides” (priority 2004, dated 2010).
*1 amine or outer side, *2 acyl side, *3 side chain or, on linkers, in order; H or OH if unused. Where a SMILES comes first, the peptide text is derived from it. Bridges are numbered along the chain shown (N, C = ends). Side-chain parts run from the residue outwards. [ ]: non-standard residue; d: D form. The star is where a group is joined. X1 = NC(=O)[C@@H](OC(=O)c1ccc(N2CCOCC2)nc1)[C@H](N[*:1])C(=O)[*:2]; Phe(3R-OH) = O=C([C@@H](N[*:1])[C@H](O[*:3])c1ccccc1)[*:2]; X2 = NC(=O)[C@@H](OC(=O)Nc1ccccc1)[C@H](N[*:1])C(=O)[*:2]; NH(4-morpholinophenyl) = c1cc(N2CCOCC2)ccc1N*; Asn(3S-OH) = NC(=O)[C@@H](O)[C@H](N)C(=O)O; Leu(3R-OH) = CC(C)[C@@H](O)[C@H](N)C(=O)O; aThr = C[C@H](O)[C@H](N)C(=O)O; CO = O=C([*:1])[*:2]

Columns and labels:
[1] = system: Staphylococcus aureus 133; assay type: cell-based
Protocol: (§1) Determination of the Minimum Inhibitory Concentration (MIC): The MIC is determined in the liquid dilution test in accordance with the NCCLS guidelines. […] The cultures are incubated at 37° C. for 18-24 hours, S. pneumoniae in the presence of 10% CO2. The lowest substance concentration in each case at which no visible bacterial growth occurs any more is defined as the MIC. The MIC values are reported in μg/ml.

E. faecium L4001 = assay type: cell-based
Protocol: as §1

[2] = system: Streptococcus pneumoniae G9a; assay type: cell-based
Protocol: as §1

E. faecalis ICB 27159 = assay type: cell-based, Entercococcus faecalis
Protocol: as §1

SMILES	MIC S. aureus 133 [1] [µg/mL]	MIC E. faecium L4001 (E. faecium L4001) [µg/mL]	MIC S. pneumoniae G9a [2] [µg/mL]	MIC E. faecalis ICB 27159 (E. faecalis ICB 27159) [µg/mL]
CC[C@H](C)[C@@H]1NC(=O)[C@@H](CCCNC(=N)N)NC(=O)[C@H](CC(C)C)NC(=O)[C@H]([C@H](O)C(C)C)NC(=O)[C@@H](NC(=O)[C@H](CC(C)C)NC(=O)[C@H](N)CC(C)C)[C@@H](c2ccccc2)OC(=O)[C@H](CO)NC(=O)[C@H]([C@H](OC(=O)c2ccc(N3CCOCC3)nc2)C(N)=O)NC(=O)CNC(=O)[C@H]([C@H](C)O)NC1=O.O=C(O)C(F)(F)F.O=C(O)C(F)(F)F [Example 17] (H-[dL]L[Phe(3R-OH)][Leu(3R-OH)]L[dR]I[aThr]G[X1]S; ester 3-C)	0.5	4	0.5	2
CC[C@H](C)[C@@H]1NC(=O)[C@@H](CCCNC(=N)NC(=O)Nc2ccc(N3CCOCC3)cc2)NC(=O)[C@H](CC(C)C)NC(=O)[C@H]([C@H](O)C(C)C)NC(=O)[C@@H](NC(=O)[C@H](CC(C)C)NC(=O)[C@H](N)CC(C)C)[C@@H](c2ccccc2)OC(=O)[C@H](CO)NC(=O)[C@H]([C@H](O)C(N)=O)NC(=O)CNC(=O)[C@H]([C@H](C)O)NC1=O.O=C(O)C(F)(F)F [Example 11] (H-[dL]L[Phe(3R-OH)][Leu(3R-OH)]L[dR]([CO-NH(4-morpholinophenyl)])I[aThr]G[Asn(3S-OH)]S; ester 3-C)	0.5	1	0.5	0.5
CC[C@H](C)[C@@H]1NC(=O)[C@@H](CCCNC(=N)N)NC(=O)[C@H](CC(C)C)NC(=O)[C@H]([C@H](O)C(C)C)NC(=O)[C@@H](NC(=O)[C@H](CC(C)C)NC(=O)[C@H](N)CC(C)C)[C@@H](c2ccccc2)OC(=O)[C@H](CO)NC(=O)[C@H]([C@H](OC(=O)Nc2ccccc2)C(N)=O)NC(=O)CNC(=O)[C@H]([C@H](C)O)NC1=O.O=C(O)C(F)(F)F.O=C(O)C(F)(F)F [Example 2] (H-[dL]L[Phe(3R-OH)][Leu(3R-OH)]L[dR]I[aThr]G[X2]S; ester 3-C)	0.5	4	1	1
